From PubChem BioAssay (NCI) come the findings set out here.

Among the test systems are ACHN renal; SF-539 CNS; KM12 colon; PC-3 prostate; CAKI-1 renal; SK-MEL-5 melanoma; OVCAR-4 ovarian; SNB-19 CNS; SW-620 colon; UACC-62 melanoma.
Holding throughout (experiment): NCI anticancer screen, dose series, 48 h

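Cells were grown in 96-well plates and exposed to each compound for 48 hours at five concentrations; endpoints were interpolated linearly between bracketing concentrations, or set to the highest concentration if not reached. At the TGI there is no net growth.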 Where a SMILES comes first, the peptide text is derived from it. Where only a bound is given, the exact number is not on record here.

Take `COc1ccc(C(=O)N(C(=O)N2CCN(c3ccccc3)CC2)S(=O)(=O)c2ccccc2)cc1`: the TGI in the experiment with ACHN renal is 35.2 µM; in the experiment with SF-539 CNS, 35.9 µM; in the experiment with KM12 colon, more than 100 µM; with PC-3 prostate it was more than 100 µM; with CAKI-1 renal, 54.2 µM; with SK-MEL-5 melanoma it was 28 µM. Also, the TGI in the experiment on OVCAR-4 ovarian is more than 100 µM; with SNB-19 CNS, 74.9 µM; in the experiment on SW-620 colon, more than 100 µM; with UACC-62 melanoma it was 39.6 µM.
In the case of `CCC(C)C(NC(=O)C1CCCN1C(=O)C(CC(C)C)NC(=O)C(CC(C)C)NC(=O)C(N)CC(C)C)C(=O)NC(C(=O)NCC(=O)NC(CC(N)=O)C(=O)NC(CC(C)C)C(=O)NC(CC(C)C)C(=O)NC(CC(C)C)C(N)=O)C(C)C` (stereo not given) (H-LLLPIVGNLLL-NH2; configuration not given here), the TGI with ACHN renal, with SF-539 CNS, with KM12 colon, with PC-3 prostate, in the experiment on CAKI-1 renal and with SK-MEL-5 melanoma was more than 50 µM each time. The TGI with OVCAR-4 ovarian, in the experiment on SNB-19 CNS, in the experiment with SW-620 colon and in the experiment on UACC-62 melanoma was more than 50 µM in each case.
As to `COc1cc([C@@H]2c3cc4c(cc3[C@@H](c3c(O)cc(O)c5c3O[C@H](c3ccc(O)c(O)c3)[C@H](OC(=O)c3cc(O)c(O)c(O)c3)C5)[C@H]3COC(=O)[C@H]23)OCO4)cc(OC)c1OC`, the TGI with ACHN renal was more than 50 µM; with SF-539 CNS, more than 100 µM; with KM12 colon, more than 100 µM; in the experiment on PC-3 prostate it was more than 77.8 µM; with CAKI-1 renal, more than 96.6 µM; in the experiment with SK-MEL-5 melanoma it was more than 100 µM. Besides, the TGI in the experiment with OVCAR-4 ovarian, in the experiment with SNB-19 CNS, in the experiment on SW-620 colon and with UACC-62 melanoma was more than 100 µM throughout.
